Laboratory results: patent US20240360178A1, “MACROCYCLIC IMMUNOMODULATORS” (Bristol-Myers Squibb Company, priority 2021, published 2024)
Positions of bridges follow the written chain, without caps; N, C: chain ends. Non-standard residues stand in square brackets, D forms with d. Residues, ends and D or L forms follow the SMILES beside them. ξ: configuration not given here. *: point of attachment. Phe(4-CH2NH2) = NCc1ccc(C[C@H](N)C(=O)O)cc1; Bip = N[C@@H](Cc1ccc(-c2ccccc2)cc1)C(=O)O; Phe(2-Me) = Cc1ccccc1C[C@H](N)C(=O)O; NMeF = CN[C@@H](Cc1ccccc1)C(=O)O; hSer = N[C@@H](CCO)C(=O)O; ξR = N=C(N)NCCCC(N)C(=O)O; Carboxymethyl = O=C(O)C*; NMeA = CN[C@@H](C)C(=O)O; Orn = NCCC[C@H](N)C(=O)O; Dab = NCC[C@H](N)C(=O)O; ξS = NC(CO)C(=O)O; Sar = CNCC(=O)O

What follows are molecules tested against T1, human PD-1 (Jurkat-PD-1 cells) / PE-labeled human PD-L1-Ig (Homo sapiens, UniProt Q15116) (assay: Jurkat-PD-1 Cell Binding High-Content Screening Assay (CBA); Jurkat hPD1-PDL1 assay). Conditions: Jurkat cell line over-expressing human PD-1; PE-labeled PD-L1-Ig 20 nM final; compound incubated 2 hours at 37° C.; read-out: Jurkat HPD1-PDL1 IC50.
T1 construct: expressed in transfected cells; host or cells: Jurkat cell line over-expressing human PD-1
T1 sequence (Q15116 25-288): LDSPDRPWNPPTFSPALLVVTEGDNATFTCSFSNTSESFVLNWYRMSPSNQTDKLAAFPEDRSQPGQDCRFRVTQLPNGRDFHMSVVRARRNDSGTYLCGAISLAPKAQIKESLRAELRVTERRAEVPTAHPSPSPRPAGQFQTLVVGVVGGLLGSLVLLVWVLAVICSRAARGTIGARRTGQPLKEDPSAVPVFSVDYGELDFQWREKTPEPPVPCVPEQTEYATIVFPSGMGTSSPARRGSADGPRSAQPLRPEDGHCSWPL
Method in brief: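 Compound was added to Jurkat-PD-1 cells in DMEM plus 10% fetal calf serum and incubated 2 hours at 37° C. Binding of phycoerythrin-conjugated PD-L1-Ig (20 nM final) to the cells was imaged.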

IC50 [µM] | Structure (SMILES)
0.57 | COc1ccc(C[C@@H]2NC(=O)CSC[C@@H](C(=O)NCC(N)=O)NC(=O)[C@H](CO)NC(=O)[C@H](C(C)C)NC(=O)[C@H](CC(C)C)NC(=O)[C@H](CC(N)=O)NC(=O)CN(C)C(=O)[C@H](C)N(C)C(=O)[C@H](C(C)C)NC(=O)[C@H](Cc3ccc(-c4ccccc4)cc3)NC(=O)[C@H](CC(C)C)NC(=O)[C@H](Cc3c[nH]c4ccccc34)NC(=O)[C@H](CC(=O)O)NC(=O)[C@H](Cc3ccc(O)cc3)NC2=O)cc1 [Example 1138] ({CH2CO}-Y(Me)YDWL[Bip]V[NMeA][Sar]NLVSCG-NH2; thioether N-14)
0.86 | CC(C)C[C@@H]1NC(=O)[C@H](Cc2c[nH]c3ccccc23)NC(=O)[C@H](CC(=O)O)NC(=O)[C@H](Cc2ccc(O)cc2)NC(=O)[C@H](Cc2ccccc2)NC(=O)CSC[C@@H](C(=O)N[C@@H](C)C(N)=O)NC(=O)[C@H](CCO)NC(=O)[C@H](C(C)C)NC(=O)[C@H](CC(C)C)NC(=O)[C@H](CC(N)=O)NC(=O)CN(C)C(=O)[C@H](C)N(C)C(=O)[C@H](C(C)C)NC(=O)[C@H](Cc2ccc(-c3ccccc3)cc2)NC1=O [Example 1159] ({CH2CO}-FYDWL[Bip]V[NMeA][Sar]NLV[hSer]CA-NH2; thioether N-14)
0.95 | Cc1ccccc1C[C@@H]1NC(=O)[C@H](CC(=O)O)NC(=O)[C@H](Cc2ccc(O)cc2)NC(=O)[C@H](Cc2ccccc2)NC(=O)CSC[C@@H](C(=O)N[C@@H](C)C(N)=O)NC(=O)[C@H](CO)NC(=O)[C@H](C(C)C)NC(=O)[C@H](CC(C)C)NC(=O)[C@H](CC(N)=O)NC(=O)CN(C)C(=O)[C@H](C)N(C)C(=O)[C@H](C(C)C)NC(=O)[C@H](Cc2ccc(-c3ccccc3)cc2)NC(=O)[C@H](CC(C)C)NC1=O [Example 1172] ({CH2CO}-FYD[Phe(2-Me)]L[Bip]V[NMeA][Sar]NLVSCA-NH2; thioether N-14)
0.74 | CC(C)C[C@@H]1NC(=O)[C@H](Cc2c[nH]c3ccccc23)NC(=O)[C@H](CC(=O)O)NC(=O)[C@H](Cc2ccc(O)cc2)NC(=O)[C@H](Cc2ccc(O)cc2)NC(=O)CSC[C@@H](C(=O)NCC(N)=O)NC(=O)[C@H](CO)NC(=O)[C@H](C(C)C)NC(=O)[C@H](CC(C)C)NC(=O)[C@H](CC(N)=O)NC(=O)CN(C)C(=O)[C@H](C)N(C)C(=O)[C@H](C(C)C)NC(=O)[C@H](Cc2ccc(-c3ccccc3)cc2)NC1=O [Example 1152] ({CH2CO}-YYDWL[Bip]V[NMeA][Sar]NLVSCG-NH2; thioether N-14)
0.85 | CC(C)C[C@@H]1NC(=O)[C@H](Cc2c[nH]c3ccccc23)NC(=O)[C@H](CC(=O)O)NC(=O)[C@H](Cc2ccc(O)cc2)NC(=O)[C@H](Cc2ccccc2)NC(=O)CSC[C@@H](C(=O)N[C@@H](CCCNC(=N)N)C(N)=O)NC(=O)[C@H](CO)NC(=O)[C@H](C(C)C)NC(=O)[C@H](CC(C)C)NC(=O)[C@H](CC(N)=O)NC(=O)CN(C)C(=O)[C@H](C)N(C)C(=O)[C@H](C(C)C)NC(=O)[C@H](Cc2ccc(-c3ccccc3)cc2)NC1=O [Example 1254] ({CH2CO}-FYDWL[Bip]V[NMeA][Sar]NLVSCR-NH2; thioether N-14)

Second part, the molecule before the results:

Structure (SMILES) | IC50 [µM]
CC(C)C[C@@H]1NC(=O)[C@H](Cc2c[nH]c3ccccc23)NC(=O)[C@H](CC(=O)O)NC(=O)[C@H](Cc2ccc(O)cc2)NC(=O)[C@H](Cc2ccccc2)NC(=O)CSC[C@@H](C(=O)N[C@@H](C)C(N)=O)NC(=O)[C@H](CO)NC(=O)[C@H](C(C)C)NC(=O)[C@H](CC(C)C)NC(=O)[C@H](CC(N)=O)NC(=O)[C@H]2CCCN2C(=O)[C@H](C)N(C)C(=O)[C@H](CCCNC(=N)N)NC(=O)[C@H](Cc2ccc(-c3ccccc3)cc2)NC1=O [Example 1027] ({CH2CO}-FYDWL[Bip]R[NMeA][dP]NLVSCA-NH2; thioether N-14) | 0.05
CC(C)C[C@@H]1NC(=O)[C@H](Cc2c[nH]c3ccccc23)NC(=O)[C@H](CC(=O)O)NC(=O)[C@H](Cc2ccc(OCC(=O)O)cc2)NC(=O)[C@H](Cc2cnc[nH]2)NC(=O)CSC[C@@H](C(=O)N[C@@H](C)C(N)=O)NC(=O)[C@H](CO)NC(=O)[C@H](C(C)C)NC(=O)[C@H](CC(C)C)NC(=O)[C@H](CC(N)=O)NC(=O)[C@H]2CCCN2C(=O)[C@H](C)N(C)C(=O)[C@H](C(C)C)NC(=O)[C@H](Cc2ccc(-c3ccccc3)cc2)NC1=O [Example 1052] ({CH2CO}-HY(Carboxymethyl)DWL[Bip]V[NMeA][dP]NLVSCA-NH2; thioether N-14) | 0.12
CC(C)C[C@@H]1NC(=O)[C@H](Cc2c[nH]c3ccccc23)NC(=O)[C@H](CC(=O)O)NC(=O)[C@H](Cc2ccc(O)cc2)NC(=O)[C@H](Cc2ccccc2)NC(=O)CSC[C@@H](C(=O)NCC(N)=O)NC(=O)[C@H](CO)NC(=O)[C@H](C(C)C)NC(=O)[C@H](CC(C)C)NC(=O)[C@H](CCN)NC(=O)[C@H]2CCCN2C(=O)[C@H](C)N(C)C(=O)[C@H](C(C)C)NC(=O)[C@H](Cc2ccc(-c3ccccc3)cc2)NC1=O [Example 1399] ({CH2CO}-FYDWL[Bip]V[NMeA][dP][Dab]LVSCG-NH2; thioether N-14) | 0.07
CC(C)C[C@@H]1NC(=O)[C@H](Cc2c[nH]c3ccccc23)NC(=O)[C@H](CC(=O)O)NC(=O)[C@H](Cc2ccc(O)cc2)NC(=O)[C@H](CC(N)=O)NC(=O)CSC[C@@H](C(=O)N[C@@H](C)C(N)=O)NC(=O)[C@H]([C@@H](C)O)NC(=O)[C@H](C(C)C)NC(=O)[C@H](CC(C)C)NC(=O)[C@H](CC(N)=O)NC(=O)[C@H]2CCCN2C(=O)[C@H](CCCN)NC(=O)[C@H](C(C)C)NC(=O)[C@H](Cc2ccc(-c3ccccc3)cc2)NC1=O [Example 1426] ({CH2CO}-NYDWL[Bip]V[Orn][dP]NLVTCA-NH2; thioether N-14) | 0.22
CC(C)C[C@@H]1NC(=O)C(CCCNC(=N)N)NC(=O)[C@H](Cc2ccccc2)N(C)C(=O)[C@H](C)N(C)C(=O)[C@H](CCCNC(=N)N)NC(=O)[C@H](Cc2ccc(-c3ccccc3)cc2)NC(=O)[C@H](C(C)C)NC(=O)[C@H](Cc2c[nH]c3ccccc23)NC(=O)[C@H](CC(=O)O)NC(=O)[C@H](Cc2ccc(O)cc2)NC(=O)[C@H](Cc2ccccc2)NC(=O)CSC[C@@H](C(=O)NCC(N)=O)NC(=O)[C@H](CCC(=O)O)NC(=O)[C@H](C(C)C)NC1=O (stereo partly drawn) [Example 1219] ({CH2CO}-FYDWV[Bip]R[NMeA][NMeF][ξR]LVECG-NH2; thioether N-14) | 0.61
CC(C)C[C@@H]1NC(=O)[C@H](Cc2c[nH]c3ccccc23)NC(=O)[C@H](CC(=O)O)NC(=O)[C@H](Cc2ccc(O)cc2)NC(=O)[C@H](Cc2ccccc2)NC(=O)CSC[C@@H](C(=O)NCC(N)=O)NC(=O)C(CO)NC(=O)[C@H](C(C)C)NC(=O)[C@H](CC(C)C)NC(=O)[C@H](CC(N)=O)NC(=O)[C@H]2CCCN2C(=O)[C@H](CCCN)NC(=O)[C@H](C(C)C)NC(=O)[C@H](Cc2ccc(-c3ccccc3)cc2)NC1=O (stereo partly drawn) [Example 1419] ({CH2CO}-FYDWL[Bip]V[Orn][dP]NLV[ξS]CG-NH2; thioether N-14) | 0.12
CC(C)C[C@@H]1NC(=O)[C@H](CCCNC(=N)N)NC(=O)[C@H](Cc2ccccc2)N(C)C(=O)[C@H](C)N(C)C(=O)[C@H](CCCNC(=N)N)NC(=O)[C@H](Cc2ccc(-c3ccccc3)cc2)NC(=O)[C@H](C(C)C)NC(=O)[C@H](Cc2c[nH]c3ccccc23)NC(=O)[C@H](CC(=O)O)NC(=O)[C@H](Cc2ccc(CN)cc2)NC(=O)[C@H](Cc2ccccc2)NC(=O)CSC[C@@H](C(=O)NCC(N)=O)NC(=O)[C@H](CO)NC(=O)[C@H](C(C)C)NC1=O [Example 1277] ({CH2CO}-F[Phe(4-CH2NH2)]DWV[Bip]R[NMeA][NMeF]RLVSCG-NH2; thioether N-14) | 0.14
